# Reference: patent US5635502A, “Mercaptoacetylamide bicyclic lactam derivatives useful as inhibitors of enkephalinase and ACE” (Merrell Pharmaceuticals Inc., priority 1995, dated 1997)
# Where a SMILES comes first, the peptide text is derived from it. [ ]: non-standard residue; d: D form. The star is where a group is joined. Phe(4-NO2) = N[C@@H](Cc1ccc([N+](=O)[O-])cc1)C(=O)O; Dansyl = CN(C)c1cccc2c(S(=O)(=O)*)cccc12
# Biological target: T1, Enkephalinase (endopeptidase-24.11) partially purified from rat kidney (Rattus norvegicus, UniProt P07861)
# T1 construct: Enkephalinase is partially purified from rat kidney; from tissue; host or cells: rat kidney, microvilli fraction
# T1 sequence (P07861 1-750): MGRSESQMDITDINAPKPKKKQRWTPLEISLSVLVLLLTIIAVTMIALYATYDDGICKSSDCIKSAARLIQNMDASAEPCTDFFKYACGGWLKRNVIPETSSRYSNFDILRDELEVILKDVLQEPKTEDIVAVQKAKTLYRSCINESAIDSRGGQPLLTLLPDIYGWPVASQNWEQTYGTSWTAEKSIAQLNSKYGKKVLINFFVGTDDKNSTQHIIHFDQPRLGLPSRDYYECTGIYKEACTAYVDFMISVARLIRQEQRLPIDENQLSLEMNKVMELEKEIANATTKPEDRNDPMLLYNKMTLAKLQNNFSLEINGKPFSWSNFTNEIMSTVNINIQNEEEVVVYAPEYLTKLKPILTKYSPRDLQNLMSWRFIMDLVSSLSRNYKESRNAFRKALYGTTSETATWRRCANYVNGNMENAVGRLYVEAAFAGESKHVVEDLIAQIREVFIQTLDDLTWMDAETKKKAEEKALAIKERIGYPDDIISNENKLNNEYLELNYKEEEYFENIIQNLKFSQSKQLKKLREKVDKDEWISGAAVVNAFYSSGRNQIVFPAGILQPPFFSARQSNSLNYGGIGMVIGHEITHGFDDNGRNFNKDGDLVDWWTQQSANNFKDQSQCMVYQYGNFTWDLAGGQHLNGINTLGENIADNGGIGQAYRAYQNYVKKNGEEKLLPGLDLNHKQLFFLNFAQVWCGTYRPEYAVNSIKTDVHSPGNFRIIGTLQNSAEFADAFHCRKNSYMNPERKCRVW
# Test: Enkephalinase fluorometric assay with substrate dansyl-D-AlaGly(p-nitro)PheGly
# Assay type: biochemical
# Conditions: substrate of enkephalinase; 50 mM HEPES buffer pH 7.4, 25° C.
# Description: Enkephalinase is partially purified from rat kidney. The enzyme is extracted from the microvilli fraction by using Triton X-100 according to the method of Malfroy and Schwartz [J. Biol. Chem. 259, 14365-14370 (1984)] or by using a proteolytic treatment according to the method of Almenoff and Orlowski [Biochem. 22, 590-599 (1983)]. The enzyme is further purified by anion exchange chromatography (Mono Q™ column, Pharmacia) using a Pharmacia FPLC system. The enzyme activity may be measured by the fluorometric methods of Florentin et al. [Anal. Biochem. 141, 62-69 (1984)] or of Almenoff and Orlowski [J. Neurochemistry 42, 151-157 (1984)]. The enzyme is assayed in 50 mM HEPES buffer (pH 7.4) in a 3.0 mL reaction volume containing 12 μM of the substrate dansyl-D-AlaGly(p-nitro)PheGly (Km =40 μM) at 25° C. The substrate (and inhibitor) is added from a concentrated stock solution in DMSO (up to 0.1 mL DMSO final volume). The enzyme in a small volume (approximately 0.1 μg of FPLC purified protein) is added to initiate the reaction and the rate of fluorescence increase is recorded continuously using a fluorometer (excitation at 339 nm, emission at 562 nm).
structure (smiles),measurement,value
C[C@@H](NS(=O)(=O)c1cccc2c(N(C)C)cccc12)C(=O)NCC(=O)N[C@@H](Cc1ccc([N+](=O)[O-])cc1)C(=O)NCC(=O)O [dansyl-D-AlaGly(p-nitro)PheGly] (Dansyl-[dA]G[Phe(4-NO2)]G-OH),Km,40 µM
